Test results reported in patent US4730069A, “Cis-platinum complexes with a pentaerythritol derivative as the ligand, a process for their preparation and a pharmaceutical agent containing these compounds” (Behringwerke Aktiengesellschaft, priority 1984, dated 1988).

Test system: NMRI mice
Assay: Determination of the acute toxicity (NMRI mice, intravenous)
Type: in vivo
Settings: intravenous on day 0, survival on day 14, which LD not stated
Method: To determine the acute toxicity, NMRI mice are injected intravenously on day 0 with different doses of the test substance, dissolved in 0.5 ml of physiological saline solution. Control groups receive only 0.5 ml of physiological saline solution. 5 mice are used per concentration of the test substance. On day 14, the number of surviving mice is determined and the LD5, LD50 and LD95 are determined therefrom by the Litchfield Wilcoxon method. The toxicity of the compounds described here is summarized in comparison with cisplatin in Table 1.

5,5-Bis-(aminomethyl)-2-methyl-2-octadecyl-1,3-dioxane-platinum(II) hydroxide [Compound 57]
Acute toxicity (LD5, LD50 and LD95 by the Litchfield Wilcoxon method) (Table 1, column c): 3.4
